Here are results for five compounds from US10738070B2, “Mannose-derived antagonists of FimH useful for treating disease” (Fimbrion Therapeutics, Inc., priority 2016, dated 2020).

One experiment deals with UTI89 bacteria. The experiment can be described thus: Biofilm inhibition assay. The experiment is classed as cell-based. The note with it: read-out: Biofilm prevention IC50. As to the method: Biofilm Assay The biofilm inhibition assay was performed with UTI89 bacteria as previously described (L. Cegelski, J. S. Pinkner, N. D. Hammer, C. K. Cusumano, C. S. Hung, E. Chorell, V. Aberg, J. N. Walker, P. C. Seed, F. Almqvist, M. R. Chapman, S. J. Hultgren Nature Chem. Biol. 2009, 5, 913-919). Compounds not listed were not tested.

The next experiment concerns the target T1, FimH (Escherichia coli, UniProt Q1R2J4).
T1 construct: endogenous in cells; host or cells: E. coli UTI89 bacteria
Nature of the experiment: Hemagglutination inhibition (HAI) assay with UTI89 bacteria and guinea pig red blood cells. Type of experiment: cell-based. To be noted: concentration reducing bacterial agglutination of guinea pig red blood cells by greater than 90%; UTI89 bacteria. As to the method:
“HAI or EC>90” is that concentration of the FimH inhibitor/antagonist which reduces the bacterial agglutination of guinea pig red blood cells by greater than 90%.
HAI Assay The hemagglutination inhibition (HAI) assay was performed with UTI89 bacteria and guinea pig red blood cells, as previously described (S. J. Hultgren, W. R. Schwan, A. J. Schaeffer, J. L. Duncan Infect. Immun. 1986, 54, 613-620). Compounds not listed were not tested.

A further experiment has as its target FimHL (Escherichia coli, UniProt P08191). Nature of the experiment: Differential scanning fluorimetry (DSF). Type of experiment: binding. To be noted: purified FimHL 10 μM with mannoside 100 μM; mean of two biological replicates. As to the method: Differential scanning fluorimetry (DSF) Purified FimHL (10 μM) in the absence or presence of mannoside (100 μM) was combined with 5× SYPRO Orange in a 50 μl reaction mixture buffered in 20 mM HEPES pH 7.5, 150 mM NaCl (HBS) and 0.4% DMSO. Binding equilibria were established by allowing the reaction mixtures to incubate at 23° C. for 30 min. These reaction mixtures were then placed in 96-well clear-bottom PCR plates and subjected to a melt curve from 20-90° C. in 0.5° C. increments of 15 seconds, each followed by a fluorescence read of the “HEX” channel in a Bio-Rad CFX96 thermocycler (Bio-Rad, Hercules, Calif.). Melt curves were fitted to the Boltzmann equation (y=A2+(A1−A2)/(1+exp((x−xo)/dx)) where xo is the Tm) to determine the melting temperature (Tm) using GraphPad Prism 6 (San Diego Calif.). Melting temperatures are represented as the mean and standard error of two biological replicates, each of which consisted of three technical replicates. Compounds not listed were not tested.

As to `Cc1cc(-n2cc(-c3ccccc3)nn2)ccc1O[C@H]1O[C@H](CO)[C@@H](O)[C@H](O)[C@@H]1O` [Example 4, 2-methyl-4-[4-(phenyl)-1H-1,2,3-triazol-1-yl]phenyl α-D-mannopyranoside], the IC50 (in general, the concentration needed to halve the response being measured) in the experiment on UTI89 bacteria worked out at 320 nM. In addition, the “HAI titer EC>90” value at FimH worked out at 0.032 µM. Also, the “DSF Melting Temp” value on FimHL came out at 74.1 °C.
As to `Cc1cc(-n2cc(-c3cccnc3)nn2)ccc1O[C@H]1O[C@H](CO)[C@@H](O)[C@H](O)[C@@H]1O` [Example 2, 2-methyl-4-[4-(pyridin-3-yl)-1H-1,2,3-triazol-1-yl]phenyl α-D-mannopyranoside], in the experiment with UTI89 bacteria, the IC50 turned out to be 524 nM. For the same compound, the “HAI titer EC>90” value at FimH is 0.032 µM. For the same compound, the “DSF Melting Temp” value on FimHL is 74.4 °C.
For `Cc1cc(-c2ccc3c(c2)C(=O)NCC3)ccc1OC1OC(CO)C(O)C(O)C1O` [Example 21, 3,4-Dihydro-7-[4′-(α-D-mannopyranosyloxy)-3′-methylphenyl]-1(2H)-iso-quinolinone] the same measures were 247 nM, 0.032 µM and 75.0 °C.
For `Cc1cc(-c2ccc3ccnc(N)c3c2)ccc1O[C@H]1O[C@H](CO)[C@@H](O)[C@H](O)[C@@H]1O` [Example 14, 7-[4′-(α-D-mannopyranosyloxy)-3′-methylphenyl]-isoquinolin-1-amine] the same measures were 336 nM, 0.02 µM and 75.1 °C.
Turning to `Cc1cc(Oc2ccccc2[N+](=O)[O-])c([N+](=O)[O-])cc1O[C@H]1O[C@H](CO)[C@@H](O)[C@H](O)[C@@H]1O` [Example 29, 2-[4-(α-D-mannopyranosyloxy)-5-methyl-2-nitrophenoxy]nitrobenzene], the “HAI titer EC>90” value at FimH came out at 1 µM.
